Experimental data from patent US11213514B2, “Alpha-1-adrenergic receptor agonist therapy” (The Regents of the University of California, priority 2016, dated 2022).

Legend:
[1] = tested on: atrial natriuretic peptide, beta myosin heavy chain, alpha-skeletal actin transcripts; assay: qRT-PCR of molecular markers of hypertrophy in mouse hearts; assay type: in vivo; conditions: hearts of mice treated with dabuzalgron
Experimental: (§1) FIGS. 1A-1C. […] FIG. 1A. Blood pressure (BP) and heart rate (HR) were measured non-invasively in male mice for 10 consecutive days using a CODA Volume Pressure Recording tail cuff system (Kent Scientific). All daily values represent the average of at least 20 cuff inflations. Mice were acclimatized to the apparatus for the first 5 days, during which no drug was administered. […] FIG. 1B. […] Heart weight (HW, in mg) was indexed to tibia length (TL, in mm). FIG. 1C. Quantitative RT-PCR was performed using heart tissue snap frozen at the time of sacrifice. Target transcripts (ANP=atrial natriuretic peptide; MHCβ=myosin heavy chain beta; α-skAct=alpha skeletal actin) were quantified relative to two standard transcripts (Polr2a=DNA-directed RNA polymerase II, subunit A; TBP=TATA-binding protein).
We used qRT-PCR to assay traditionally accepted molecular markers of hypertrophy in the hearts of mice treated with dabuzalgron. There was no change in the transcript abundance of atrial natriuretic peptide, beta myosin heavy chain, or alpha-skeletal actin. (FIG. 1C)
Total RNA was isolated from cells and tissue (QiagenRNeasy Plus mini kit #74134) and analyzed using a NanoDrop (ThermoScientific). For qRT-PCR, one […]g of RNA was reverse transcribed using High Capacity cDNA Reverse Transcription Kit (Life Technologies #4368814). Two step qRT-PCR reactions contained 2% of the cDNA product. All reactions were performed in triplicate in a Roche 480 Light Cycler. Relative quantitation of PCR products used the ΔΔCt method relative to two validated reference genes (Tbp and Polr2a). Similar efficiencies were confirmed for all primers. All probes and primers were from Roche.

[2] = tested on: wild type mice; assay: Indexed heart weight after 7-day gavage treatment in uninjured mice; assay type: in vivo, mouse; conditions: for Body weight, final / Heart weight / Heart weight/tibia length / Heart/body weight: uninjured wild type mice, 7 days
Experimental: as §1

[3] = tested on: rabbits; conditions: 10 μg/kg; cited from earlier work
[4] = tested on: women; conditions: cited from earlier work
[5] = tested on: mouse heart; assay: Pressure overload cardiomyopathy caused by transverse aortic constriction; assay type: in vivo; conditions: mice, TAC day 0, osmotic minipumps from 4 weeks; both doses 20 ug/kg/d and 200 ug/kg/d; day 55
Experimental: FIG. 8. […] Cardiac function was measured before TAC, and every 2 weeks, using echocardiography.

[6] = tested on: neonatal rat ventricular myocytes; assay: Myocyte death caused by oxidative stress with H2O2; assay type: cell-based; conditions: neonatal rat ventricular myocytes (FIG. 7)
[7] = tested on: ERK; assay: ERK activation in neonatal rat ventricular myocytes (pERK/ERK Western blot); assay type: cell-based; conditions: Rattus norvegicus, Ventricular myocyte; uninjured NRVMs, 15 minutes, propranolol pre-treatment; read-out: EC50, ERK phosphorylation
From the text: FIGS. 4A-4F. […] The reaction was stopped immediately and lysates were blotted for total and phospho-ERK (pERK). FIG. 4A. Representative Western blot. FIG. 4B. […] FIG. 4C. Summary of pERK/ERK for experiments using 5 different NRVM isolations. The average pERK/ERK ratio for each experiment was derived from at least 2 individual wells and normalized to the pERK/ERK ratio for vehicle treated NRVMs. FIG. 4D and FIG. 4E. […] Heart lysates were blotted for pERK and ERK. Results were compared using one way ANOVA with Tukey post-test. FIG. 4F.
Dabuzalgron protects neonatal rat ventricular myocytes from cell death due to doxorubicin. […] (FIG. 4C).
Female Sprague-Dawley rats were from Charles River. NRVMs were isolated as previously described.7 Briefly, hearts from 1-2 day old rat pups were minced, digested serially in collagenase (Worthington)-containing solution, filtered, then pre-plated to exclude non-myocyotes. NRVMs were then plated on laminin-coated dishes in DMEM with 5% fetal bovine serum (Sigma F2442) for 24 hours. Experiments were carried out after 36-96 hours of serum starvation in the presence of insulin, transferrin, and BrdU. […]
All results are presented as mean±SEM. […] EC50 for ERK activation was calculated using sigmoidal dose-response analysis (Prism).

[8] = tested on: pigs; conditions: 10 μg/kg; cited from earlier work
[9] = tested on: wild type mice; assay: Tail cuff blood pressure and heart rate in uninjured mice; assay type: in vivo, mouse; conditions: any dose 1-100 μg/kg/day, gavage twice daily for 5 days
Experimental: as §1
Untreated mice were trained on the tail cuff apparatus daily for 5 days.
Tail cuff blood pressure (BP) and heart rate (HR) were obtained on awake mice by repeated measurements using a CODA Volume Pressure Recording tail cuff system (Kent Scientific).2 Mice were trained to the apparatus for 5 days prior to data collection. Systolic BP and HR measurements represent the average of at least 20 tail cuff inflations per mouse each afternoon.

[10] = any dose 1-100 μg/kg/day, gavage twice daily for 7 days
[11] = human, 1.5 mg by mouth twice daily

For `Cc1c(OCC2=NCCN2)ccc(Cl)c1NS(C)(=O)=O` [dabuzalgron, N-[6-chloro-3-(4,5-dihydro-1H-imidazol-2-ylmethoxy)-2-methylphenyl]methanesulfonamide], which “transcript abundance of alpha-skeletal actin” value [1] is on record?
The value was “no change”.

What about the “transcript abundance of atrial natriuretic peptide” value [1] of the same compound?
The value was “no change”.

What about the “transcript abundance of beta myosin heavy chain” value [1] of the same compound?
The value was “no change”.

What about the “change in body weight” value [2, 10] of the same compound?
Its value is “no measurable change”.

And the “change in heart weight” value [2, 10]?
The value was “no measurable change”.

What about the “Body weight, final” value ([2]; 0.2 μg/kg/day gavage) of the same compound?
Its value is 25.3 ± 0.4 g.

What about the Heart weight ([2]; 0.2 μg/kg/day gavage) of the same compound?
The Heart weight was 106 ± 4 mg.

And the Heart weight/tibia length ([2]; 0.2 μg/kg/day gavage)?
Its Heart weight/tibia length is 6.1 ± 0.3 mg/mm.

And the Heart/body weight ([2]; 0.2 μg/kg/day gavage)?
Its Heart/body weight is 0.42 ± 0.01%.

And the “Body weight, final” value ([2]; 2 μg/kg/day gavage)?
The value was 25.9 ± 0.8 g.

And the Heart weight ([2]; 2 μg/kg/day gavage)?
The Heart weight was 106 ± 4 mg.

And the Heart weight/tibia length ([2]; 2 μg/kg/day gavage)?
Its Heart weight/tibia length is 6.1 ± 0.2 mg/mm.

And the Heart/body weight ([2]; 2 μg/kg/day gavage)?
Its Heart/body weight is 0.41 ± 0.02%.

What about the “Body weight, final” value ([2]; 20 μg/kg/day gavage) of the same compound?
The value was 27.3 ± 1.1 g.

What about the Heart weight ([2]; 20 μg/kg/day gavage) of the same compound?
Its Heart weight is 110 ± 4 mg.

And the Heart weight/tibia length ([2]; 20 μg/kg/day gavage)?
Its Heart weight/tibia length is 5.9 ± 0.2 mg/mm.

What about the Heart/body weight ([2]; 20 μg/kg/day gavage) of the same compound?
The Heart/body weight was 0.41 ± 0.01%.

What about the “Body weight, final” value ([2]; 200 μg/kg/day gavage) of the same compound?
Its value is 27.4 ± 1.6 g.

And the Heart weight ([2]; 200 μg/kg/day gavage)?
The Heart weight was 113 ± 6 mg.

What about the Heart weight/tibia length ([2]; 200 μg/kg/day gavage) of the same compound?
Its Heart weight/tibia length is 6.1 ± 0.3 mg/mm.

And the Heart/body weight ([2]; 200 μg/kg/day gavage)?
Its Heart/body weight is 0.41 ± 0.01%.

What about the “effect on BP” value [3] of the same compound?
Its value is “no effect”.

And the BP [4, 11]?
The BP was “did not alter”.

And the HR [4, 11]?
The HR was “did not alter”.

What about the “difference in urinary incontinence between dabuzalgron and placebo groups” value ([4]; interim analysis of the Phase 2 trials) of the same compound?
Its value is “no clinically meaningful difference”.

And the “changes in BP” value ([4]; subjects who received dabuzalgron in any of these trials)?
Its value is “no significant changes”.

And the tolerability ([4]; total of 1,223 women, Phase 1, two Phase 2 trials and open-label study)?
The tolerability was “well tolerated”.

What about the “cardiac function (fractional shortening) compared with vehicle” value [5] of the same compound?
The value was “significant improvement”.

What about the “myocyte death caused by oxidative stress with H2O2” value [6] of the same compound?
Its value is “prevents”.

And the EC50 [7]?
The EC50 was 480 nM.

What about the “effect on BP” value [8] of the same compound?
Its value is “no effect”.

And the HR vs vehicle [9]?
The HR vs vehicle was “no difference”.

And the “systolic BP vs vehicle” value [9]?
The value was “no difference”.
